As usually defined, the ED50 is the dose at which the effect has come halfway, by size or by number of responders. A word on the Emax: it is the size of the effect at its maximum, as opposed to the concentration needed. A word on the EC50: it is the concentration that produces a half-maximal response. As usually defined, the half-life is the time in which the quantity being followed falls by half. A lower half-life goes with fast loss.

For series [1], the system named is B6129/F1 hybrid mice. Description: Hot plate test. It counts as in vivo, mouse.
For series [2], the target named is human μ opioid receptor β-arrestin-2 (Homo sapiens, UniProt P35372). Description: cell-based.
The nature of series [3]: in vitro. Particulars: human, microsomes.
Series [4] in a line: Solubility observed for in vivo dosing.
The target in series [5] is human δ opioid receptor (OPRD1) (Homo sapiens, UniProt P41143). The series can be described thus: cell-based. It is filed as cell-based.
Series [6] in a line: in vitro. The conditions noted are these: mouse, microsomes.
The target of series [7] is human μ opioid receptor (OPRM1) (Homo sapiens, UniProt P35372). Description: cell-based. It counts as cell-based.
The target of series [8] is κ opioid receptor (OPRK1) (Homo sapiens, UniProt P41145). Description: cell-based.
Series [9] concerns B6129/F1 hybrid mice. The series can be described thus: Naloxone pre-treatment antagonist study in hot plate test. It is filed as in vivo, mouse. The conditions noted are these: naloxone 10 mg/kg pretreatment, agonist 10 mg/kg. (In general: Thermal pain tests record how soon the animal reacts.)
Series [10] addresses nociceptin receptor (OPRL1) (Homo sapiens, UniProt P41146). Description: cell-based. It counts as cell-based.

Structures are written as SMILES. Values joined by “and” are separate entries in the source; they are usually repeats but may differ in a detail not shown here. Equal entries are not always repeated.

nociceptin receptor (OPRL1), sequence (P41146 whole entry): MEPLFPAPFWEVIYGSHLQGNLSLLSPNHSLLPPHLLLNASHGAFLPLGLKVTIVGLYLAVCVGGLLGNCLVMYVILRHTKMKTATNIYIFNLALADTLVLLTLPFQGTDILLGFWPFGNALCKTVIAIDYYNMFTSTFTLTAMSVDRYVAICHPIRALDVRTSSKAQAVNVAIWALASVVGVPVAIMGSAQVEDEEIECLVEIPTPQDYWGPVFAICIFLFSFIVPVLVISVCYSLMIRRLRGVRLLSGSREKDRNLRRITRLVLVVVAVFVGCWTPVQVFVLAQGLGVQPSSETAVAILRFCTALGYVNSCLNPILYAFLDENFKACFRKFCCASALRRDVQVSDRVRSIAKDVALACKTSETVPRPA
human μ opioid receptor β-arrestin-2, sequence (P35372 whole entry): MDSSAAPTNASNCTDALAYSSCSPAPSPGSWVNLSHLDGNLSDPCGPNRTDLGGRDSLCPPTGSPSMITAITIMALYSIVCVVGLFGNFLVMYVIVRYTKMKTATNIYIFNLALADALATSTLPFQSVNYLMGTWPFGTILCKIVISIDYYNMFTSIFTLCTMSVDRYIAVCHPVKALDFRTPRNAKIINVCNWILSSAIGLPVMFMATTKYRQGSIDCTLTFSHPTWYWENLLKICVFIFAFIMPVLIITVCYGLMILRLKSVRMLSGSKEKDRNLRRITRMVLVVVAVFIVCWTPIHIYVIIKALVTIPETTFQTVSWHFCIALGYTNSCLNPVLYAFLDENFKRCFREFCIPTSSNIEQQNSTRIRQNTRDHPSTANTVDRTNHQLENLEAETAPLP
human μ opioid receptor (OPRM1), sequence (P35372 whole entry): as above
κ opioid receptor (OPRK1), sequence (P41145 whole entry): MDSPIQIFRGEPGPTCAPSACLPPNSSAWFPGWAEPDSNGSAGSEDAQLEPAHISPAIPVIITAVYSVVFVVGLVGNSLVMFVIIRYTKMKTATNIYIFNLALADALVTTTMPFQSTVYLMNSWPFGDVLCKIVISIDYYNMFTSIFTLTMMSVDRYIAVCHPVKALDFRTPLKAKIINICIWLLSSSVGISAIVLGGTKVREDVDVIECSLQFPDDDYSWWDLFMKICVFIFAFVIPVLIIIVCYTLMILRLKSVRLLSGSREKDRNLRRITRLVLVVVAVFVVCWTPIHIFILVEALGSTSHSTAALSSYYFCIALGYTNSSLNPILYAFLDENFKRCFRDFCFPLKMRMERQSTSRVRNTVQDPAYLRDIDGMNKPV
human δ opioid receptor (OPRD1), sequence (P41143 whole entry): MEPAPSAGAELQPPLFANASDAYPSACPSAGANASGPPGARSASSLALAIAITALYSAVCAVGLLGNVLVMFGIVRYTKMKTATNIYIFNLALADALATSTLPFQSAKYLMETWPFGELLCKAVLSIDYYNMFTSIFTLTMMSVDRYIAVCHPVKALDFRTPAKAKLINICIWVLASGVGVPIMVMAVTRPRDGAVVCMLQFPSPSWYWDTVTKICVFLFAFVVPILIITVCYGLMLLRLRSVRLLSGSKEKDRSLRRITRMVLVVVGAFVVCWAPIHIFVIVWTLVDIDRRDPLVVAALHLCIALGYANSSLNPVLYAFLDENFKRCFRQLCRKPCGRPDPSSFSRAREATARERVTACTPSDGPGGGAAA

In the case of `NC(=O)c1cccc(N2C3CCC2CN(CCCc2ccccc2)C3)c1` [Compound 13, 3-(3-(3-Phenylpropyl)-3,8-diazabicyclo[3.2.1]octan-8-yl)benzamide], the ED50 in series [1] (Mus musculus, ip, read-out: ED50 (antinociception, hot plate)) turned out to be 0.658 mg/kg. In addition, the “in vivo agonist profile (antinociception)” value in [1] (hot plate, mice, i.p.) is “partial agonists”. Besides, in series [1] (i.p., cumulative doses, B6129/F1 mice, nonlinear regression), the “Emax (maximal possible effect at the highest dose, hot plate)” value is 31.91 % MPE and 32 % MPE. Further, in [2], the “β-Arrestin Recruitment pEC50 ± SEM” value was 7.8 ± 0.1. Moreover, the Emax was 7.5 ± 1.3% in series [2] (read-out: β-Arrestin Recruitment %Emax ± SEM); 81.3 ± 3% in series [5] (read-out: DOR cAMP Emax ± SEM (%)); 101.8 ± 0.3% in series [7] (OPRM1, read-out: MOR cAMP %Emax ± SEM); 0% in [8] (read-out: KOR cAMP Emax ± SEM (%)); 0% in series [10] (read-out: NOR cAMP Emax ± SEM (%)). In addition, the EC50 in series [2] (read-out: β-Arrestin Recruitment EC50) was 16 nM; in [5] (read-out: DOR cAMP EC50), 10 nM; in series [7] (read-out: MOR cAMP EC50) it was 0.25 nM; in series [8] (read-out: KOR cAMP EC50) it was more than 10000 nM; in [10] (read-out: NOR cAMP EC50), more than 10000 nM. For the same compound, the half-life amounted to 92.7 min in [3] and 14.2 min in series [6]. Besides, the “solubility (in words)” value in series [4] is “readily soluble”. In addition, the “DOR cAMP pEC50±SEM” value in [5] was 8.0 and 8.0 ± 0.2. Besides, in series [7], the “MOR cAMP pEC50±SEM” value stood at 9.6 ± 0.1. Also, the “KOR cAMP pEC50± SEM” value in [8] is recorded as less than 5.0. In addition, in [9], the “effect of naloxone pretreatment on antinociceptive effects” value is on record as “antagonized by naloxone”. The “NOR cAMP pEC50± SEM” value in series [10] is given as less than 5.0.
